This is an account of results in article PMC4408918 (Journal of medicinal chemistry, 2012).

Structures are written as SMILES. Like-named read-outs stand apart in the source and are kept apart here. Some results are limits rather than exact numbers.

What is called CLint scaled is the rate of metabolic loss divided by the concentration. As a reminder, the EC50 is the concentration needed to bring the measured effect to its halfway point. The AUC(0-inf) is the area under the concentration-time curve extrapolated to infinity. A lower AUC(0-inf) goes with less exposure. A word on the CL/F: it is clearance divided by bioavailability, as obtained after extravascular dosing. Broadly, the IC50 is the midpoint of a concentration-inhibition curve.

Data set [1] is described as follows: Liver microsomal stability, human. Type of data set: in vitro ADME. The conditions noted are these: both, pH 7.4.
A further data set deals with P. falciparum K1. As to the kind of experiment: P. falciparum K1 growth inhibition. Type of data set: cell-based. Conditions: Plasmodium falciparum, K1, 72 h, read-out: K1 EC50.
The next data set concerns P. berghei (NK-65). As to the kind of experiment: Oral efficacy in P. berghei. The conditions noted are these: 100 and 200 mg/kg oral on days 3, 4, 5.
The subject of the next data set is P. falciparum 3D7. As to the kind of experiment: P. falciparum 3D7 growth inhibition. In kind it is cell-based. Conditions: Plasmodium falciparum, 3D7, 72 h, read-out: 3D7 EC50.
Data set [2] can be described thus: In vivo pharmacokinetics, oral, female CD-1 mice. Conditions: for AUC(0-inf) / CL/F: female, CD-1, mouse, po.
Another data set concerns Kir6.2/SUR2A. Conditions: read-out: Kir6.2 IC50; cited from earlier work.
Data set [3] is described as follows: Liver microsomal stability, mouse. Type of data set: in vitro ADME. The conditions noted are these: female, CD9, mouse, mouse liver microsomes, pH 7.4.
Data set [4] can be described thus: Parallel Artificial membrane Permeability Assay. Conditions: triplicate. Type of data set: in vitro ADME.
A further data set has as its system Nav1.5. Conditions: cited from earlier work.
The target in another data set is CYP2D6 (Homo sapiens, UniProt P10635). As to the kind of experiment: CYP inhibition in human liver microsomes, CYP2D6. Type of data set: in vitro ADME. The conditions noted are these: 20 minutes at 37 °C, two concentrations.
Setting [5] is: human liver microsomes (pooled).

Sequence of CYP2D6 (P10635 whole entry): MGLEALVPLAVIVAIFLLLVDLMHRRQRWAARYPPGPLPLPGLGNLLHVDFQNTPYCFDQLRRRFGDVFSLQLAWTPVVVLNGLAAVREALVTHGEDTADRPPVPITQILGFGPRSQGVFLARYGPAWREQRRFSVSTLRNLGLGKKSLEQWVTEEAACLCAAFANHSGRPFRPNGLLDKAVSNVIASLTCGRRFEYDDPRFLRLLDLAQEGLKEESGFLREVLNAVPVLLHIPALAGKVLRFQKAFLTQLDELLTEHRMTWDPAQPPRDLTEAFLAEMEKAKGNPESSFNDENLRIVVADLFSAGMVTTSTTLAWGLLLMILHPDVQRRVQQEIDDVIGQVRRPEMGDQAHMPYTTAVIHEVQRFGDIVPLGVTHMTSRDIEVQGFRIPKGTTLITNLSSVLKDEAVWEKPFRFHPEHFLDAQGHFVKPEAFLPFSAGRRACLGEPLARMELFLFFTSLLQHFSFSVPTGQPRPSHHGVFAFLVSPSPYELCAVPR

For the molecule `O=C(CCc1ccccc1)c1ccccc1OCC(O)CN1CCN(C(c2ccccc2)c2ccccc2)CC1` (stereo not shown) [Compound 1], the intrinsic clearance (CLint scaled) at 2000 µM in data set [1] (setting [5]) was 14 ± 1 mL/min/kg. In addition, the values for the concentration for a half-maximal effect (EC50) in the data set with P. falciparum K1 and in the data set on P. falciparum 3D7 were 0.1 ± 0.05 µM and 0.06 ± 0.01 µM, respectively. The “overall in vivo efficacy” value with P. berghei (NK-65) is reported as “not significantly better than that of the negative controls”. For the same molecule, the AUC(0-inf) in data set [2] (plasma, 20 mg/kg) came to 0.249 µM·h; in [2] (plasma, 200 mg/kg), 3.1 µM·h; in [2] (plasma, 500 mg/kg), 3.37 µM·h. In addition, the CL/F is 2350 mL/min/kg in data set [2] (plasma, 20 mg/kg); 1890 mL/min/kg in [2] (plasma, 200 mg/kg); 4340 mL/min/kg in [2] (plasma, 500 mg/kg).
Regarding `O=C(CCc1ccccc1)c1cc(F)ccc1OCC(O)CN1CCN(C(c2ccccc2)c2ccccc2)CC1` (stereo not shown) [Compound 2], the intrinsic clearance (CLint scaled) at 2000 µM in data set [1] (microsomes) came to 5 ± 2 mL/min/kg. Moreover, the IC50 in the data set on Kir6.2/SUR2A was above 5 µM. Also, in data set [2] (plasma, 200 mg/kg), the AUC(0-inf) came out at 6.17 µM·h and the CL/F was 920 mL/min/kg.
Turning to `O=C(CCc1ccc(F)cc1)c1ccccc1OCC(O)CN1CCN(C(c2ccccc2)c2ccccc2)CC1` (stereo not shown) [Compound 3], the CLint scaled at 2000 µM in [1] (setting [5]) turned out to be 13 ± 1 mL/min/kg; in [3], 43 ± 3 mL/min/kg. The “Avg. Pe (PAMPA permeability)” value in [4] was “und^a”. Also, the area under the curve AUC(0-inf) worked out at 0.298 µM·h in data set [2] (plasma, 20 mg/kg); 5.67 µM·h in data set [2] (plasma, 200 mg/kg); 4.08 µM·h in data set [2] (plasma, 500 mg/kg). The CL/F in [2] (plasma, 20 mg/kg) is 1900 mL/min/kg; in [2] (plasma, 200 mg/kg) it was 1000 mL/min/kg; in data set [2] (plasma, 500 mg/kg), 3480 mL/min/kg.
On to `O=C(CCc1ccccc1)c1ccccc1OCC(O)CN1CCC(c2ccccc2)CC1` (stereo not shown) [Compound 4], for which the intrinsic metabolic clearance (CLint scaled) at 2000 µM in [1] (setting [5]) was 11 ± 1 mL/min/kg; in data set [3] it was 27 ± 2 mL/min/kg. Further, the half-maximal inhibitory concentration (IC50) in the data set on Kir6.2/SUR2A is above 5 µM; in the data set on Nav1.5 (read-out: Nav1.5 phasic IC50, phasic), above 5 µM; in the data set with Nav1.5 (read-out: Nav1.5 tonic IC50, tonic) it was above 5 µM. For the same molecule, the CYP2D6 inhibition entry on CYP2D6 is listed as “weak CYP2D6 inhibitors”. Moreover, the “overall in vivo efficacy” value in the data set on P. berghei (NK-65) was “some efficacy in suppressing parasitemia and life extension, but did not provide durable cures”. In addition, in data set [2] (500 mg/kg oral, female CD-1 mice), the “improvement in AUCinf over compound 1” value is given as “approximately 5 fold”. The AUC(0-inf) worked out at 0.224 µM·h in [2] (in vivo, 20 mg/kg); 6.8 µM·h in data set [2] (in vivo, 200 mg/kg); 15.3 µM·h in data set [2] (in vivo, 500 mg/kg). For the same molecule, the apparent clearance (CL/F) in data set [2] (in vivo, 20 mg/kg) is 3110 mL/min/kg; in data set [2] (in vivo, 200 mg/kg) it was 1020 mL/min/kg; in data set [2] (in vivo, 500 mg/kg) it was 1140 mL/min/kg.
Consider `O=C(CCc1ccccc1)c1cc(F)ccc1OCC(O)CN1CCC(c2ccccc2)CC1` (stereo not shown) [Compound 5], for which the results for the CLint scaled at 2000 µM in [1] (setting [5]) and in data set [3] were 19 ± 1 mL/min/kg and 29 ± 2 mL/min/kg, respectively. In data set [4], the “Avg. Pe (PAMPA permeability)” value is “und^a”. Besides, the CYP2D6 inhibition entry at CYP2D6 is reported as “weak CYP2D6 inhibitors”. Besides, the AUC(0-inf) is 1.6 µM·h in [2] (plasma, 20 mg/kg) and 3.75 µM·h in data set [2] (plasma, 200 mg/kg). For the same molecule, the apparent clearance CL/F was 421 mL/min/kg in data set [2] (plasma, 20 mg/kg) and 1790 mL/min/kg in data set [2] (plasma, 200 mg/kg). For the same molecule, the “increase in Cmax with increasing dose from 20 mg/kg to 200 mg/kg” value in [2] (oral, female CD-1 mice) stood at 2 fold.
For `Cc1ccc(N2CCN(CC(O)COc3ccccc3C(=O)CCc3ccccc3)CC2)cc1` (stereo not shown) [Compound 6], the CLint scaled at 2000 µM in data set [3] amounted to 30 ± 6 mL/min/kg. Moreover, in the data set with Kir6.2/SUR2A, the IC50 is above 5 µM. Besides, in the data set on Nav1.5, the IC50 is above 5 µM. In addition, the “Avg. Pe (PAMPA permeability)” value in data set [4] is recorded as “und^a”. Moreover, in data set [2] (in vivo, 200 mg/kg), the area under the curve AUC(0-inf) stood at 6.49 µM·h and the CL/F is 1000 mL/min/kg.
